In the Kinase Knowledgebase extract (Sharma et al. 2016):

Target: EGFR (human) (UniProt P00533)
Details: A431

EGFR (human), sequence (P00533 whole entry, looked up): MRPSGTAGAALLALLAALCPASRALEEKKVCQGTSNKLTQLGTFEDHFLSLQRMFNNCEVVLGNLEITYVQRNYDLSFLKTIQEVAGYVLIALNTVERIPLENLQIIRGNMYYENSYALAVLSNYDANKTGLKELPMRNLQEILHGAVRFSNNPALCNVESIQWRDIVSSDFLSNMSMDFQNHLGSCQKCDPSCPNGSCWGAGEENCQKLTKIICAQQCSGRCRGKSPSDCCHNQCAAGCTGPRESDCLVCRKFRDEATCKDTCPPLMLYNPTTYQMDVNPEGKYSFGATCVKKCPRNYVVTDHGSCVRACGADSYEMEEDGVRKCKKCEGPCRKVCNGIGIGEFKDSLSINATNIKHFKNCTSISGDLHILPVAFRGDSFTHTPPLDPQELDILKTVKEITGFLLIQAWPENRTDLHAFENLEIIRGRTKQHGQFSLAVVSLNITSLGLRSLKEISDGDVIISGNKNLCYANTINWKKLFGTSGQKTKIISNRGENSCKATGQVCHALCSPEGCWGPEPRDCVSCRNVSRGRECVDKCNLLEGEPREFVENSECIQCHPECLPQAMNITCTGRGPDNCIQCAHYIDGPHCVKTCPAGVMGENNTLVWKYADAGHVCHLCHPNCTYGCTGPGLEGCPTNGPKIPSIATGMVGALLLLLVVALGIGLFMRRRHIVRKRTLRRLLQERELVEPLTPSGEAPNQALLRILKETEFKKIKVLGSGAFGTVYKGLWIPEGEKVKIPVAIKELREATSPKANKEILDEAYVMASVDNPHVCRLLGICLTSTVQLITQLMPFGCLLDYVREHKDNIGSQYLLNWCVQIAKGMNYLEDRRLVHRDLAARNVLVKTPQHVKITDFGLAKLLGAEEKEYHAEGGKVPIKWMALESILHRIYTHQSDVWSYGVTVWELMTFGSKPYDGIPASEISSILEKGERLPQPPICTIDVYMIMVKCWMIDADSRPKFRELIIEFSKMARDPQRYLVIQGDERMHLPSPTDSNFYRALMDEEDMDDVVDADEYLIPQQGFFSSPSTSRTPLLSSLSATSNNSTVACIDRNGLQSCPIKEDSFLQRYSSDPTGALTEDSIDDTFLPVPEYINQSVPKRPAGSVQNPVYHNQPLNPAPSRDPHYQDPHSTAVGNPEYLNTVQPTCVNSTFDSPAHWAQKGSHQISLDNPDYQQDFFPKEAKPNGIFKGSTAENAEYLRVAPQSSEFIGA

| SMILES | IC50 [µM] |
| --- | --- |
| O=C(O)c1cc(N(Cc2ccccc2O)Cc2cc(O)ccc2O)ccc1O | 0.4 |
| Oc1ccc(C=Nc2cccc(O)c2)cc1 | > 140 |
| Oc1ccc(NCc2cccc(O)c2)cc1 | > 140 |
| Oc1cccc(C=Nc2cccc(O)c2)c1 | > 140 |
| Oc1cccc(C=Nc2ccccc2O)c1 | 108 |
| Oc1ccc(CNc2ccc(O)cc2)cc1 | 33 |
| Oc1ccc(N=Cc2cccc(O)c2)cc1 | 33 |
| Oc1cccc(CNc2cccc(O)c2)c1 | > 140 |
| Oc1ccc(CNc2ccccc2O)cc1 | > 140 |
| Oc1ccccc1C=Nc1ccccc1O | > 140 |

Further lines, results first:

| IC50 [µM] | SMILES |
| --- | --- |
| > 140 | Oc1cccc(NCc2ccccc2O)c1 |
| > 140 | Oc1ccc(CNc2cccc(O)c2)cc1 |
| > 140 | Oc1cccc(CNc2ccccc2O)c1 |
| > 140 | Oc1ccc(NCc2ccccc2O)cc1 |
| 92 | Oc1ccc(N=Cc2ccccc2O)cc1 |
| > 140 | Oc1ccccc1CNc1ccccc1O |
| > 140 | Oc1cccc(N=Cc2ccccc2O)c1 |
| > 140 | Oc1ccc(C=Nc2ccc(O)cc2)cc1 |
| > 140 | Oc1ccc(C=Nc2ccccc2O)cc1 |
